Data set [1] can be described thus: Liver microsomes study, Phase I stability (RLM). Type of data set: in vitro ADME, rat. To be noted: pH 7.4; rat liver microsomes 0.5 mg/mL, 1 μM test article; read-out: RLM Clint. As to the method:
(§1) Commercially available liver microsomes (MsLM vendor: XENOTECH; RLM, DLM, MkL, HLM vendor: Corning) were used for study the Phase I stability of test articles. […] The reaction was initiated by addition of 80 μL of the NADPH regenerating system to 320 µL of each incubation mixture per time point. […] The 0-minute samples were prepared by addition of an 80 μL aliquot of each incubation mixture to 400 μL quench reagent to precipitate proteins. And then a 20 μL aliquot of the NADPH regenerating system was added. At 10, 30, and 90 minutes, the reaction will be stopped by the addition of cold acetonitrile solution containing tolbutamide and propanolol served as internal standard. The samples taken at all time points were centrifuged at 4000×g for 15 minutes. 80 μL of supernatant are taken into 96-well assay plates pre-added with 160 μL ultrapure water, and then analyzed by LC/MS/MS(Shimadzu LC30AD & API4000/API5000)). Concentrations of test articles, control compounds in the samples were determined by using LC/MS/MS) method. Plotting of the chromatograms and peak area integrations are carried out by Analyst (AB Sciex).
(§2) In the determination of the in vitro elimination constant, ke, of the control compounds, the analyte/internal standard peak area ratios will be converted to percentage remaining (% Remaining) with the following equation: […]
(§3) The slope was measured by the natural logarithm of the percentage of the residual compound and time, T½ and CLint were calculated according to the following formulas, V/M was equal to the 1/concentration of protein.
In general terms: Microsomes from liver hold many membrane-bound enzymes, among them those of drug oxidation.

The target in the next data set is T1, JAK1 (Homo sapiens, UniProt P23458).
T1 construct: purchased Carna Biosciences
The data set can be described thus: JAK1 microfluidic kinase assay (Caliper EZ Reader II, FAM labeled peptide substrate). Type of data set: biochemical. The following applies: IC50 JAK1 (5 nM) (1 m MATP), JAK1 5 nM, 1 mM ATP. The essentials:
(§4)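 Microfluidic mobility-shift kinase assay in 50 mM HEPES, 0.01% Brij35, 10 mM MgCl2, 2 mM DTT. IC50 values come from percent-inhibition curves normalised to uninhibited and enzyme-free controls.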

The nature of data set [2]: Liver microsomes study, Phase I stability (HLM). Type of data set: in vitro ADME, human. To be noted: pH 7.4; human liver microsomes 0.5 mg/mL, 1 μM test article; read-out: HLM Clint. As to the method: as §1, §2, §3
The target in the next data set is T2, JAK2V617F (Homo sapiens, UniProt O60674, V617F).
T2 construct: purchased Carna Biosciences
The data set can be described thus: JAK2V617F microfluidic kinase assay (Caliper EZ Reader II, FAM labeled peptide substrate). To be noted: JAK2V617F 2.5 nM, 1 mM ATP. Type of data set: biochemical. The essentials:
as §4

In the next data set the target is T3, JAK2 (Homo sapiens, UniProt O60674).
T3 construct: purchased Carna Biosciences
The data set can be described thus: JAK2 microfluidic kinase assay (Caliper EZ Reader II, FAM labeled peptide substrate). The class given is biochemical. The essentials: as §4

Where [3] appears, read: IC50 JAK2 ([…]) (1 mM ATP), 1 mM ATP.
Setting [4] is: IC50 JAK2 ([…]) (Km ATP), Km ATP.

Data on 18 molecules can be found in patent US12595253B2, “Benzamides of pyrazolylamino-pyrimidinyl derivatives, and compositions and methods thereof” (LYNK PHARMACEUTICALS CO. LTD., priority 2019, dated 2026).

Some results are limits rather than exact numbers.

What is called IC50 is the concentration that gives 50% inhibition. A higher IC50 goes with weaker potency.

T2 sequence (O60674 whole entry V617F): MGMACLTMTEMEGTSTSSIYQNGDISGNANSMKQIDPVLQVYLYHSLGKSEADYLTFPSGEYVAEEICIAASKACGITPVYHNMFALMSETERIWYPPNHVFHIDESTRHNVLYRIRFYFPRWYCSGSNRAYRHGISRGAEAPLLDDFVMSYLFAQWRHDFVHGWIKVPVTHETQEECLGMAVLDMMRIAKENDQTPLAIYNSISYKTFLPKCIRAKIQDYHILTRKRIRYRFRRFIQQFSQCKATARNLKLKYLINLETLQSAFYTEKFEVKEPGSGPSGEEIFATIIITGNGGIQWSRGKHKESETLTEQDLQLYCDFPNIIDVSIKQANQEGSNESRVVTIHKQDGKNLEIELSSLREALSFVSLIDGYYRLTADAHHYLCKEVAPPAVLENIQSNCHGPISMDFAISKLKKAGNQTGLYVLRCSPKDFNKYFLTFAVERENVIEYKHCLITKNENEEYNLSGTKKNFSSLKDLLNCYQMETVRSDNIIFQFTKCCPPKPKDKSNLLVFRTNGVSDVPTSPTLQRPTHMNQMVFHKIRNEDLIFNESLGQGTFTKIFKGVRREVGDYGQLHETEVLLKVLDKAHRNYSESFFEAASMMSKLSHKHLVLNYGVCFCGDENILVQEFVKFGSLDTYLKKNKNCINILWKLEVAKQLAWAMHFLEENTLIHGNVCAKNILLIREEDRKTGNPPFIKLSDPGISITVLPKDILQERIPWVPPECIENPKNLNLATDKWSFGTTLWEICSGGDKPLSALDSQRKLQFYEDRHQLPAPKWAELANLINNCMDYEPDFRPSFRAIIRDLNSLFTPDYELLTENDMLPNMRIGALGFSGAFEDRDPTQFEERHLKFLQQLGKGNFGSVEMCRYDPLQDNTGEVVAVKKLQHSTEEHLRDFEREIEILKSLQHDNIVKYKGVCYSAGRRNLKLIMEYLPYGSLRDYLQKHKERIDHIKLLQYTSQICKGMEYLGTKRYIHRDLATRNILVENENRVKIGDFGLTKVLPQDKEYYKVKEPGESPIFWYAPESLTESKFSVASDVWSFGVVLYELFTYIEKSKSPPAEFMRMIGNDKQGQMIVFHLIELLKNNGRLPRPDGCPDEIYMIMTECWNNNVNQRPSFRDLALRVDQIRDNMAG
T1 sequence (P23458 whole entry): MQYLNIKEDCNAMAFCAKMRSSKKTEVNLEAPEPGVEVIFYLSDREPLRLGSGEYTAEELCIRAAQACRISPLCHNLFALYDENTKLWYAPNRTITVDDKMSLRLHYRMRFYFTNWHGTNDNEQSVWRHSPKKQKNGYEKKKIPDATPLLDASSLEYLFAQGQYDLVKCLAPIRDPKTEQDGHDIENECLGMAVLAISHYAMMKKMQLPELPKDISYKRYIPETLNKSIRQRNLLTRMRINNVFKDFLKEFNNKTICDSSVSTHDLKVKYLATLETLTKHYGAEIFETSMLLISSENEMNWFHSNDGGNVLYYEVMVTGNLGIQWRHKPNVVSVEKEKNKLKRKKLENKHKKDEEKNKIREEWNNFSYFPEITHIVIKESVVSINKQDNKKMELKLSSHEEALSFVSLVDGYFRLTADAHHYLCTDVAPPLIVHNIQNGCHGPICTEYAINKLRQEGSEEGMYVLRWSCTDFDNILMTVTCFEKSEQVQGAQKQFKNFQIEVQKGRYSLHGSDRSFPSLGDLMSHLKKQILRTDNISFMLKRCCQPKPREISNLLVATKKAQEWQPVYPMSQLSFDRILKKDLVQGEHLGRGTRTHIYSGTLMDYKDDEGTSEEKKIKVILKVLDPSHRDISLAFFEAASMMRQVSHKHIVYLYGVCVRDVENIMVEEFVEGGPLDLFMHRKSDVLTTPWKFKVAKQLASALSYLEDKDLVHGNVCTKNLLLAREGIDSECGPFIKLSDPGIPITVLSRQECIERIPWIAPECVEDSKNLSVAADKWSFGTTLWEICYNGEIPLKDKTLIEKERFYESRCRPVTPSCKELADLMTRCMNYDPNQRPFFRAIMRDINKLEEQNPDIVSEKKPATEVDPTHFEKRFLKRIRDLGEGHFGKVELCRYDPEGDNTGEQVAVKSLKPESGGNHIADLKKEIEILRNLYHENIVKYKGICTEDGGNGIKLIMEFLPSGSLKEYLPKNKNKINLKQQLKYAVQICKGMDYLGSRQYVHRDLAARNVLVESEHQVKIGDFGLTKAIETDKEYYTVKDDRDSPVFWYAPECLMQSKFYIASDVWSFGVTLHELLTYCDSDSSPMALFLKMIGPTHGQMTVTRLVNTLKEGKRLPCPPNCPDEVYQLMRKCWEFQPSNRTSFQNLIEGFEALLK
T3 sequence (O60674 whole entry): as the sequence (O60674 whole entry V617F) above, with F617V counted along it

Consider `CO[C@H]1CC[C@H](n2cc(Nc3ncc(C)c(-c4ccc(C(=O)N[C@@H](C)C#N)cc4)n3)cn2)CC1` [Example 91, N—((S)-1-cyanoethyl)-4-(2-((1-(trans-4-methoxycyclohexyl)-1H-pyrazol-4-yl)amino)-5-methylpyrimidin-4-yl)benzamide], for which the microsomal CLint at 1 μM worked out at 80.1 µL/min/mg in data set [1] and 6.7 µL/min/mg in data set [2]. Moreover, the IC50 against JAK1 is 12 nM; on JAK2V617F, 15.8 nM; against JAK2 (setting [3]) it was 0.35 nM.

In the case of `Cc1cnc(Nc2cnn(C3CCN(C(=O)C4CC4)CC3)c2)nc1-c1ccc(C(=O)NCC#N)nc1` [Example 150, N-(cyanomethyl)-5-(2-((1-(1-(cyclopropanecarbonyl)piperidin-4-yl)-1H-pyrazol-4-yl)amino)-5-methylpyrimidin-4-yl)picolinamide], the microsomal CLint at 1 μM in data set [1] turned out to be 80.8 µL/min/mg; in data set [2], 56.4 µL/min/mg. Moreover, the figures for the IC50 against JAK1 and on JAK2V617F were 23.5 nM and 4.19 nM, respectively.

`Cc1cnc(Nc2cnn(C3CCN(C(=O)C4CC4)CC3)c2)nc1-c1ccc(C(=O)NCC2(C#N)CC2)cc1` [Example 158, N-((1-cyanocyclopropyl)methyl)-4-(2-((1-(1-(cyclopropanecarbonyl)piperidin-4-yl)-1H-pyrazol-4-yl)amino)-5-methylpyrimidin-4-yl)benzamide]: the figures for the microsomal CLint at 1 μM in data set [1] and in data set [2] were 124 µL/min/mg and 142 µL/min/mg, respectively. In addition, the concentration for half-maximal inhibition (IC50) at JAK1 was found to be 23.9 nM; on JAK2V617F it was 28.2 nM; at JAK2 (setting [3]) it was 0.88 nM.

On to `Cc1cnc(Nc2cnn(C3CCN(C(=O)C4(F)CC4)CC3)c2)nc1-c1ccc(C(=O)NCC#N)cc1` [Example 152, N-(cyanomethyl)-4-(2-((1-(1-(1-fluorocyclopropanecarbonyl)piperidin-4-yl)-1H-pyrazol-4-yl)amino)-5-methylpyrimidin-4-yl)benzamide], for which the microsomal CLint at 1 μM in data set [1] was 85.9 µL/min/mg; in data set [2], 96 µL/min/mg. For the same molecule, the IC50 against JAK1 was 14.9 nM; on JAK2V617F, 0.67 nM; on JAK2 (setting [3]), less than 0.25 nM.

Take `Cc1cnc(Nc2cnn([C@H]3CC[C@H](C#N)CC3)c2)nc1-c1ccc(C(=O)N[C@@H](C)C#N)cc1` [Example 154, 4-(2-((1-(Trans-4-cyanocyclohexyl)-1H-pyrazol-4-yl)amino)-5-methylpyrimidin-4-yl)-N—((S)-1-cyanoethyl)benzamide]: the microsomal CLint at 1 μM in data set [1] was 69 µL/min/mg; in data set [2], 14.7 µL/min/mg. In addition, the IC50 on JAK1 was 12 nM; against JAK2V617F it was 4.5 nM.

For `Cc1cnc(Nc2cnn(C3C[C@@H](C)O[C@@H](C)C3)c2)nc1-c1ccc(C(=O)NCC#N)cc1` (stereo partly drawn) [Example 68], the microsomal CLint at 1 μM in data set [1] is 228 µL/min/mg; in data set [2] it was 141 µL/min/mg. The IC50 amounted to 30.4 nM against JAK1 and 9.07 nM at JAK2V617F.

Consider `N#CC1(CNC(=O)c2ccc(-c3nc(Nc4cnn(C5CCOCC5)c4)ncc3Cl)cc2)CC1` [Example 78, 4-(5-Chloro-2-((1-(tetrahydro-2H-pyran-4-yl)-1H-pyrazol-4-yl)amino)pyrimidin-4-yl)-N-((1-cyanocyclopropyl)methyl)benzamide], for which the microsomal CLint at 1 μM in data set [1] came to 47.2 µL/min/mg; in data set [2], 30 µL/min/mg. Further, the results for the IC50 at JAK1 and at JAK2V617F were 37.8 nM and 45.3 nM, respectively.

`Cc1cnc(Nc2cnn(C3C[C@H]4CC[C@@H](C3)O4)c2)nc1-c1ccc(C(=O)N[C@@H](C)C#N)cc1` (stereo partly drawn) [Example 70, 4-(2-((1-((1R,5S)-8-oxabicyclo[3.2.1]octan-3-yl)-1H-pyrazol-4-yl)amino)-5-methylpyrimidin-4-yl)-N—((S)-1-cyanoethyl)benzamide]: the results for the microsomal CLint at 1 μM in data set [1] and in data set [2] were 32.5 µL/min/mg and 42.9 µL/min/mg, respectively. In addition, the figures for the IC50 against JAK1 and against JAK2V617F were 12.4 nM and 7.22 nM, respectively.

For `Cc1cnc(Nc2cnn(C3CCOCC3)c2)nc1-c1ccc(C(=O)N[C@@H](C)C#N)cc1` [Example 144, (S)—N-(1-cyanoethyl)-4-(5-methyl-2-((1-(tetrahydro-2H-pyran-4-yl)-1H-pyrazol-4-yl)amino)pyrimidin-4-yl)benzamide], the figures for the microsomal CLint at 1 μM in data set [1] and in data set [2] were 38.6 µL/min/mg and 19.4 µL/min/mg, respectively. The IC50 against JAK1 was determined as 13.9 nM; at JAK2V617F, 30.1 nM.

For the molecule `N#CCNC(=O)c1ccc(-c2nc(Nc3cnn(C4CC4)c3)ncc2Cl)cn1` [Example 120, 5-(5-Chloro-2-((1-cyclopropyl-1H-pyrazol-4-yl)amino)pyrimidin-4-yl)-N-(cyanomethyl)picolinamide], the figures for the microsomal CLint at 1 μM in data set [1] and in data set [2] were 47.5 µL/min/mg and 16.2 µL/min/mg, respectively. Moreover, the IC50 against JAK1 was 39.8 nM; on JAK2V617F, 131 nM.

Consider `Cc1cnc(Nc2cnn(C3CC(C#N)C3)c2)nc1-c1ccc(C(=O)NCC#N)cc1` (stereo not drawn) [Example 106, 4-(2-((1-(3-Cyanocyclobutyl)-1H-pyrazol-4-yl)amino)-5-methylpyrimidin-4-yl)-N-(cyanomethyl)benzamide], for which the microsomal CLint at 1 μM in data set [1] was 38.4 µL/min/mg; in data set [2], 11.1 µL/min/mg. Also, the IC50 is 14.9 nM against JAK1, 23.7 nM at JAK2V617F, 2.17 nM on JAK2 (setting [3]) and 0.25 nM against JAK2 (setting [4]).

In the case of `CC(C)(C#N)CNC(=O)c1ccc(-c2nc(Nc3cnn(C4CC4)c3)ncc2Cl)cc1` [Example 123, 4-(5-Chloro-2-((1-cyclopropyl-1H-pyrazol-4-yl)amino)pyrimidin-4-yl)-N-(2-cyano-2-methylpropyl)benzamide], the microsomal CLint at 1 μM in data set [1] worked out at 77.3 µL/min/mg; in data set [2], 35.2 µL/min/mg. The concentration for half-maximal inhibition (IC50) at JAK1 is 19 nM; against JAK2V617F it was 56 nM; against JAK2 (setting [3]), 13 nM.

For `Cc1cnc(Nc2cnn(C(C)C(F)(F)F)c2)nc1-c1ccc(C(=O)NCC#N)cc1` (stereo not drawn) [Example 112, N-(cyanomethyl)-4-(5-methyl-2-((1-(1,1,1-trifluoropropan-2-yl)-1H-pyrazol-4-yl)amino)pyrimidin-4-yl)benzamide], the values for the microsomal CLint at 1 μM in data set [1] and in data set [2] were 76.4 µL/min/mg and 49.1 µL/min/mg, respectively. For the same molecule, the IC50 against JAK1 stood at 6.43 nM; against JAK2V617F, 119 nM; against JAK2 (setting [3]), 79 nM.

Turning to `COCCNC(=O)c1ccc(-c2nc(Nc3cnn(C)c3)ncc2C)cc1` [Example 6, N-(2-Methoxyethyl)-4-(5-methyl-2-((1-methyl-1H-pyrazol-4-yl)amino)pyrimidin-4-yl)benzamide], the microsomal CLint at 1 μM in data set [1] was found to be 2.58 µL/min/mg; in data set [2], 6.6 µL/min/mg. Moreover, the IC50 turned out to be 75.4 nM against JAK1, 669 nM against JAK2V617F and 8.4 nM at JAK2 (setting [4]).

Consider `Cc1cnc(Nc2cnn(C3CC3)c2)nc1-c1ccc(C(=O)N2CC(C#N)C2)c(F)c1` [Example 140, 1-(4-(2-((1-Cyclopropyl-1H-pyrazol-4-yl)amino)-5-methylpyrimidin-4-yl)-2-fluorobenzoyl)azetidine-3-carbonitrile], for which the microsomal CLint at 1 μM was found to be 628 µL/min/mg in data set [1] and 9.1 µL/min/mg in data set [2]. Besides, the IC50 came to 257 nM against JAK1, 341 nM against JAK2V617F, 155 nM against JAK2 (setting [3]) and 6.4 nM on JAK2 (setting [4]).

For `Cc1cnc(Nc2cnn(C3CCN(C(=O)[C@H]4CC4(C)C)CC3)c2)nc1-c1ccc(C(=O)NCC#N)cc1` [Example 143, (S)—N-(cyanomethyl)-4-(2-((1-(1-(2,2-dimethylcyclopropanecarbonyl)piperidin-4-yl)-1H-pyrazol-4-yl)amino)-5-methylpyrimidin-4-yl)benzamide], the microsomal CLint at 1 μM in data set [1] was determined as 599 µL/min/mg; in data set [2] it was 1430 µL/min/mg. The IC50 amounted to 15.4 nM against JAK1, 17.3 nM at JAK2V617F and 0.4 nM against JAK2 (setting [3]).

Consider `Cc1cnc(Nc2cnn(C)c2)nc1-c1ccc(C(=O)N[C@H](C)C#N)cc1` [Example 101, (R)—N-(1-cyanoethyl)-4-(5-methyl-2-((1-methyl-1H-pyrazol-4-yl)amino)pyrimidin-4-yl)benzamide], for which the microsomal CLint at 1 μM was found to be 19.2 µL/min/mg in data set [1] and 2 µL/min/mg in data set [2]. The results for the IC50 against JAK1, against JAK2V617F and against JAK2 (setting [4]) were 75.1 nM, 362 nM and 4.5 nM, respectively.

Consider `Cc1cnc(Nc2cnn(C3CCN(C(=O)C(C)(C)O)CC3)c2)nc1-c1ccc(C(=O)NCC#N)cc1` [Example 51, N-(cyanomethyl)-4-(2-((1-(1-(2-hydroxy-2-methylpropanoyl)piperidin-4-yl)-1H-pyrazol-4-yl)amino)-5-methylpyrimidin-4-yl)benzamide], for which the microsomal CLint at 1 μM in data set [1] turned out to be 17.1 µL/min/mg; in data set [2], 33.9 µL/min/mg. In addition, the IC50 was determined as 8.7 nM at JAK1 and 0.51 nM on JAK2V617F.
